According to US8066979B1, “Attractants and repellents for the tropical root weevil Diaprepes Abbreviatus” (The United States of America as represented by the …, priority 2007, dated 2011):

What was measured:
[1] = system: D. abbreviatus male antenna; experiment: Gas chromatography-linked electroantennogram detection (GC-EAD); parameters: species or system Diaprepes abbreviatus; conditions: for antennal response (EAD) to constituents of citrus leaf headspace: SPME collection of citrus leaf volatiles, HP-5 column
Text: Gas chromatography-linked electroantennogram detection (GC-EAD): The antenna of the insect was employed as a detector in tandem with a high resolution gas chromatography system (GC, Hewlett Packard, […]) as in Dickens (Dickens, J. C., Agr. Forest Entomol., 1: 47-54 (1999)) to locate biologically active constituents in volatile collections of plants and candidate chemicals. An adult weevil antenna was mounted between two glass capillaries. Silver wires were inserted into the ends of both glass capillaries. One glass capillary filled with 0.1 M NaCl served as recording electrode holding the tip of the flagellum. The other capillary filled with electrode gel (Spectra 360, Parker Laboratories, USA) served as ground electrode holding the proximal end of the pedicel. The antenna was bathed in a humidified air-stream (60% RH, 23±2° C.) delivered at 30 cm/s (Stimulus Controller CS-05, Syntech) via a stainless steel tube (5 mm internal diameter) whose outlet was approximately 0.5 cm from the preparation. The electrophysiological signal was amplified and conditioned prior to storage and analyses using a computer equipped with GC-EAD 2.3 software (Syntech). Samples were injected into the gas chromatograph with a septum-purged packed column injector and a flame ionization detector (FID) at 245° C. equipped with one of the following J&W Scientific capillary columns: stationary phase DB-[…], high polarity, film thickness 0.25 μm, length 30 m, i.d. 0.248 mm or HP-5, low polarity, film thickness 0.25 μm, length 30 m, i.d. 0.251 mm. After an initial temperature of 50° C., which was held for 2 min following injection, the temperature of the GC oven was increased at 15° C./min to 235° C., which was held for 8 min. The enantiomers of linalool present in the odor of citrus were separated for their identification using a β-cyclodextrin column (stationary phase HP-Chiral-20B, mid-polar polarity, film thickness 0.25 μm, length 30 m, i.d. 0.252 mm). Following the injection of the linalool enantiomers, the initial temperature of 50° C. was held for 2 min following injection and then increased at 3° C./min to 180° C. Carrier gas (He) flow was 50 cm/s. The effluent from the column was split using a Gerstel GraphPack-3D/2 splitter with a ratio of approximately 1 part to the FID and 4 parts to the electroantennogram detector (EAD). The latter was swept by the humidified air-stream to the electrophysiological preparation from a heated transfer line (Syntech) at 245° C. Volatiles that elicited responses on the antenna were identified by GC-MS (Dickens, J. C., et al., J. Exp. Biol., 4: 309-314 (2002)).

[2] = system: D. abbreviatus antennae; experiment: Electroantennography (EAG) recordings; parameters: species or system Diaprepes abbreviatus; conditions: for antenna sensory threshold: amount in stimulus cartridge; for Mean EAG of the weevil antenna to the standard: diluted 1000-fold in hexane, mean±SE, n=30; for EAGs compared on the same antenna (enantiomer/racemate comparison): n=3, paired Wilcoxon test; for EAG dose-response curve at the two higher stimulus loads: 10 μg and 100 μg
Experimental: Electroantennography (EAG) recordings: For EAGs, an adult weevil antenna was mounted between two electrodes as described above for GC-EAD recordings. EAGs were analyzed using EAG 2.3 software (Syntech).
The following chemicals were serially diluted (ca. 0.01-100 μg) in hexane and tested separately on the antenna: cis-3-hexen-1-ol, trans-2-hexen-1-ol, (±)-linalool, (R)-(−)-linalool, (R)-(+)-citronellal, (S)-(−)-citronellal, cis-geraniol (nerol), trans-geraniol, cis-citral (neral), trans-citral (geranial), and carvacrol. Citral isomers were tested together in a blend. In order to compare activity of (±)-linalool and (R)-(−)-linalool ([…] was not available) as well as (R)-(+)-citronellal and (S)-(−)-citronellal, the enantiomers were tested alternatively on the same antenna of female and male weevils. Solvents and synthetic chemicals used in this investigation were ≧97% pure and acquired from Aldrich, Fisher Scientific, Fluka, and Sigma. Nomenclature of chemicals in the text follows that employed by NIST (http://webbook.nist.gov/chemistry/). One microliter of each solution was deposited on a small filter paper strip (0.8×2 cm; Whatman) that was inserted into a Pasteur pipette (cartridge) after solvent evaporation. The tip of the pipette was introduced via a hole in the wall of the stainless steel tube at 3 cm from the preparation. An air current (0.5 s duration, 50 cm/s airspeed; Air Velocity Meter 441S, Kurtz Instruments, USA) swept the chemicals evaporating from the filter paper from the cartridge (Stimulus Controller CS-05, Syntech) to the air-stream in which the antenna was bathed. Interstimulus time intervals of 2-3 min allowed for recovery of the antennal receptors. To allow for changes in sensitivity of an antenna preparation over time, stimulation with a standard compound preceded and followed each stimulus tested. A puff of 1 μg of (R)-(−)-linalool served as standard for EAGs with cis-3-hexen-1-ol and trans-2-hexen-1-ol, and 1 μg of cis-3-hexen-1-ol for EAGs with other compounds. A solvent control consisted of 1 μl of hexane on filter paper. EAGs were standardized by calculating the percent response of the experimental odorant relative to the mean of two responses to the standard preceding and following its presentation.
(§1) Statistical analysis: EAGs between (±)-linalool and (R)-(−)-linalool as well as between (R)-(+)-citronellal and (S)-(−)-citronellal on the same antenna were compared using the paired Wilcoxon test (Sokal, R. R., and F. J. Rohlf, Biometry, 3rd ed. Freeman, New York (1995)). Relative and absolute proportions of volatiles released by undamaged and damaged citrus leaves were also compared using the paired Wilcoxon test. Insect choices between test and control T-track olfactometer extremes were assessed for significant differences by the hypothesis on binomial proportions based on the standard normal approximation (Brase, C. H., and C. P. Brase, Understanding statistics, 1983, DC Health and Co, Lexington, Mass.). Other behaviors were analyzed using the paired Wilcoxon test and Chi-square test. Statistical analysis was performed using R (version 2.4.0, Vienna, Austria; Ihaka, R., and R. […], J. Comput. Graph. Stat., 5: 299-314 (1996)).

[3] = system: D. abbreviatus adults; experiment: Open T-track dual choice olfactometer behavioral experiments; assay type: in vivo, Diaprepes abbreviatus; parameters: unit not given here; conditions: stereotyped behavior in T-track olfactometer
Text: Behavioral experiments: An open T-track dual choice olfactometer described by Dickens (1999) was modified as follows. A container (diameter 11 cm, height 8 cm) with petrolatum on its border, to prevent the escape of insects that were placed in its interior, was placed at the bottom of the vertical “T”. As D. abbreviatus is reluctant to move for long periods (some times hours) after being manipulated, 20-30 insects of the same sex were placed in the container in order to increase chances of observing insects walking. When more than one insect started to climb the “T” tube, the experiment was discarded. Stereotyped behaviors performed by the weevil were recorded using a video camera (Digital Handycam DCR-TVR30).
The following compounds diluted in 25 μl of mineral oil placed on a 4.25 cm filter paper (No. 2, Whatman, England) in a odour-delivery bottle were tested separately in the olfactometer (doses indicated in parenthesis): (±)-linalool (25 μg), (R)-(+)-citronellal (25 μg), carvacrol (25 μg) and cis-3-hexen-1-ol (25 μg). The following blends were also tested: (±)-linalool (25 μg)+carvacrol (2.5 μg) and (±)-linalool (25 μg)+carvacrol (2.5 μg)+cis-3-hexen-1-ol (25 μg). An equal amount of the mineral oil solvent on filter paper was placed in the other side of the olfactometer. In order to observe the behaviour of insects to solvent alone, mineral oil was placed in both odour-delivery bottles. Responses of forty insects (20 females and 20 males) were recorded for each stimulus.
as §1

[4] = at the injected amounts 1 ng and 10 ng

CC(C)=CCC/C(C)=C/CO [trans-geraniol]
antennal response (EAD) to injected synthetic compound [1, 4]: no responses | increase in EAG response from 1 to 10 μg in the stimulus cartridge [2]: did not share such a pattern | increase in magnitude of EAGs with increments in amount dosed in the stimulus cartridge ([2]; females): EAG increase was not pronounced | antenna sensory threshold ([2]; females): around 0.1 μg | increase in magnitude of EAGs with increments in amount dosed in the stimulus cartridge ([2]; males): no significant increases

CC(C)=CCCC(C)CC=O (racemic) [(±)citronellal]
antennal response (EAD) to injected synthetic compound ([1]; 1 ng injected, the lowest dose): disappeared | antennal response (EAD) to injected synthetic compound ([1]; 10 ng injected): persisted

CC(C)=CCCC(C)CC=O (centres unmarked) [citronellal]
antennal response (EAD) to constituents of citrus leaf headspace [1]: EAGs were recorded

CC(C)=CCC/C(C)=C\CO [nerol, cis-geraniol (nerol)]
antennal response (EAD) to constituents of citrus leaf headspace [1]: EAGs were recorded | antennal response (EAD) to injected synthetic compound [1, 4]: no responses | increase in EAG response from 1 to 10 μg in the stimulus cartridge [2]: did not share such a pattern

C=C[C@](C)(O)CCC=C(C)C [(R)-(−)-linalool]
Mean EAG of the weevil antenna to the standard [2]: 1.750±0.311 mV | EAGs compared on the same antenna (enantiomer/racemate comparison) ([2]; females): did not differ significantly | antenna sensory threshold ([2]; females): around 0.1 μg | EAGs compared on the same antenna (enantiomer/racemate comparison) ([2]; males): did not differ significantly | antenna sensory threshold ([2]; males): around 0.1 μg

Cc1ccc(C(C)C)cc1O [carvacrol]
hesitation ([3]; females): 90 | reaching ([3]; females): 45 | rectifying ([3]; females): 32.5 | hesitation ([3]; males): 95 | reaching ([3]; males): 45 | rectifying ([3]; males): 47.5 | antennal response (EAD) to injected synthetic compound [1, 4]: EAGs were recorded only for the two former chemicals | increase in EAG response from 1 to 10 μg in the stimulus cartridge [2]: did not share such a pattern | EAG dose-response curve at the two higher stimulus loads ([2]; females): reached saturation | increase in EAGs in response to serial dilutions ([2]; females, from 0.01 μg to 1 μg): more pronounced than for males | antenna sensory threshold ([2]; females): around 0.1 μg | EAG dose-response curve at the two higher stimulus loads ([2]; males): continued to increase

C=CC(C)(O)CCC=C(C)C (racemic) [(±)-linalool]
hesitation ([3]; females): 80 | reaching ([3]; females): 30 | rectifying ([3]; females): 22.5 | hesitation ([3]; males): 82.5 | reaching ([3]; males): 52.5 | rectifying ([3]; males): 25 | antennal response (EAD) to injected synthetic compound ([1]; 10 ng injected): persisted | EAGs compared on the same antenna (enantiomer/racemate comparison) ([2]; females): did not differ significantly | EAGs compared on the same antenna (enantiomer/racemate comparison) ([2]; males): did not differ significantly

CC(C)=CCC/C(C)=C\C=O [cis-citral, cis-citral (neral)]
antennal response (EAD) to injected synthetic compound [1, 4]: no responses

CC(C)=CCC/C(C)=C/C=O [trans-citral, trans-citral (geranial)]
antennal response (EAD) to constituents of citrus leaf headspace [1]: EAGs were recorded | antennal response (EAD) to injected synthetic compound [1, 4]: no responses

CC(C)=CCC[C@H](C)CC=O [(S)-(−)-citronellal]
antenna sensory threshold ([2]; males): around 0.1 μg

CCC/C=C/CO [trans-2-hexen-1-ol]
antennal response (EAD) to injected synthetic compound [1, 4]: EAGs were recorded | antenna sensory threshold ([2]; females): around 0.1 μg | antenna sensory threshold ([2]; males): around 0.1 μg

CC(C)=CCC[C@@H](C)CC=O [(R)-(+)-citronellal]
hesitation ([3]; females): 95 | reaching ([3]; females): 62.5 | rectifying ([3]; females): 15 | hesitation ([3]; males): 85 | reaching ([3]; males): 52.5 | rectifying ([3]; males): 5 | EAGs compared on the same antenna (enantiomer/racemate comparison) ([2]; females): larger than for (S)-(−)-citronellal | EAGs compared on the same antenna (enantiomer/racemate comparison) ([2]; males): larger than for (S)-(−)-citronellal

CC(C)=CCCC(C)=CC=O [citral (cis and trans), citral]
antenna sensory threshold ([2]; females): around 0.1 μg | antenna sensory threshold ([2]; males): around 0.1 μg

CC/C=C\CCO [cis-3-hexen-1-ol]
hesitation ([3]; females): 75 | reaching ([3]; females): 12.5 | rectifying ([3]; females): 10 | hesitation ([3]; males): 85 | reaching ([3]; males): 30 | rectifying ([3]; males): 12.5 | antennal response (EAD) to injected synthetic compound [1, 4]: EAGs were recorded | Mean EAG of the weevil antenna to the standard [2]: 1.605±0.200 mV | antenna sensory threshold ([2]; females): around 0.1 μg | antenna sensory threshold ([2]; males): around 0.1 μg

C=CC(C)(O)CCC=C(C)C (centres unmarked) [linalool]
antennal response (EAD) to constituents of citrus leaf headspace [1]: EAGs were recorded
